Source: patent US20020111274A1, “1-alkyl-3-[1-(substituted phenyl) benzotriazol-6-yl] uracils” (BASF Aktiengesellschaft, priority 2000, published 2002)

Legend:
Set-up in all cases: scale not given here
[1] = tested on: TRZAWR Wheat, Winter, cv Riband; experiment: Postemergence herbicidal evaluation, TRZAWR; assay type: in vivo, Triticum aestivum; conditions: postemergence spray, rated about two-three weeks after treatment
Procedure, shortened: (§1)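 Two-week-old seedlings sprayed postemergence with compound in 80/20 acetone/water plus 1.0% methylated seed oil, at about 0.006–0.400 kg/ha, through a nozzle at 40 psi. Plants kept under greenhouse conditions and visually rated about two–three weeks after treatment; ratings from repeat tests averaged.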

[2] = tested on: IPOHE Morningglory, Ivyleaf; experiment: Preemergence herbicidal evaluation, IPOHE; assay type: in vivo, Ipomoea hederacea, (L.) Jacq.; conditions: preemergence
Procedure, shortened: (§2)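 First, seed is blended with potting soil and sown over roughly an inch of soil per cup. Next, the surface is sprayed with an aqueous acetone solution delivering about 0.013–0.800 kg/ha. Finally, cups are grown in the greenhouse and rated after 4–5 weeks.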

[3] = tested on: SETVI Foxtail, Green; experiment: Postemergence herbicidal evaluation, SETVI; assay type: in vivo, Setaria viridis, (L.) Beau; conditions: postemergence spray, rated about two-three weeks after treatment
Procedure, shortened: as §1

[4] = tested on: CHEAL Lambsquarters, Common; experiment: Preemergence herbicidal evaluation, CHEAL; assay type: in vivo, Chenopodium album, L.; conditions: preemergence
Procedure, shortened: as §2

[5] = tested on: ORYSAT Rice, Tebonnet; experiment: Postemergence herbicidal evaluation, ORYSAT; assay type: in vivo, Oryza sativa, (L.); conditions: postemergence spray, rated about two-three weeks after treatment
Procedure, shortened: as §1

[6] = tested on: ECHOG Barnyardgrass; experiment: Postemergence herbicidal evaluation, ECHOG; assay type: in vivo, Echinochloa crus-galli, (L.) Beau; conditions: postemergence spray, rated about two-three weeks after treatment
Procedure, shortened: as §1

[7] = tested on: GLXMAW Soybean, Williams; experiment: Postemergence herbicidal evaluation, GLXMAW; assay type: in vivo, Glycine max, (L.) Merr. cv Williams; conditions: postemergence spray, rated about two-three weeks after treatment
Procedure, shortened: as §1

[8] = tested on: CASOB Sicklepod; experiment: Preemergence herbicidal evaluation, CASOB; assay type: in vivo, Cassia obtusifolia, L.; conditions: preemergence
Procedure, shortened: as §2

[9] = tested on: GALAP Galium; experiment: Preemergence herbicidal evaluation, GALAP; assay type: in vivo, Galium aparine; conditions: preemergence
Procedure, shortened: as §2

[10] = tested on: ABUTH Velvetleaf; experiment: Postemergence herbicidal evaluation, ABUTH; assay type: in vivo, Abutilon theophrasti, Medic.; conditions: postemergence spray, rated about two-three weeks after treatment
Procedure, shortened: as §1

[11] = tested on: CASOB Sicklepod; experiment: Postemergence herbicidal evaluation, CASOB; assay type: in vivo, Cassia obtusifolia, L.; conditions: postemergence spray, rated about two-three weeks after treatment
Procedure, shortened: as §1

[12] = tested on: ORYSAT Rice, Tebonnet; experiment: Preemergence herbicidal evaluation, ORYSAT; assay type: in vivo, Oryza sativa, (L.); conditions: preemergence
Procedure, shortened: as §2

[13] = tested on: SETVI Foxtail, Green; experiment: Preemergence herbicidal evaluation, SETVI; assay type: in vivo, Setaria viridis, (L.) Beau; conditions: preemergence
Procedure, shortened: as §2

[14] = tested on: ZEAMX Corn, Field; experiment: Postemergence herbicidal evaluation, ZEAMX; assay type: in vivo, Zea mays, L. (Sammel-Bezeichnung); conditions: postemergence spray, rated about two-three weeks after treatment
Procedure, shortened: as §1

[15] = tested on: IPOHE Morningglory, Ivyleaf; experiment: Postemergence herbicidal evaluation, IPOHE; assay type: in vivo, Ipomoea hederacea, (L.) Jacq.; conditions: postemergence spray, rated about two-three weeks after treatment
Procedure, shortened: as §1

[16] = tested on: ZEAMX Corn, Field; experiment: Preemergence herbicidal evaluation, ZEAMX; assay type: in vivo, Zea mays, L. (Sammel-Bezeichnung); conditions: preemergence
Procedure, shortened: as §2

[17] = tested on: ECHOG Barnyardgrass; experiment: Preemergence herbicidal evaluation, ECHOG; assay type: in vivo, Echinochloa crus-galli, (L.) Beau; conditions: preemergence
Procedure, shortened: as §2

[18] = tested on: GLXMAW Soybean, Williams; experiment: Preemergence herbicidal evaluation, GLXMAW; assay type: in vivo, Glycine max, (L.) Merr. cv Williams; conditions: preemergence
Procedure, shortened: as §2

[19] = tested on: ABUTH Velvetleaf; experiment: Preemergence herbicidal evaluation, ABUTH; assay type: in vivo, Abutilon theophrasti, Medic.; conditions: preemergence
Procedure, shortened: as §2

[20] = tested on: AMBEL Ragweed, Common; experiment: Preemergence herbicidal evaluation, AMBEL; assay type: in vivo, Ambrosia artemisifolia, L.; conditions: preemergence
Procedure, shortened: as §2

[21] = tested on: AMBEL Ragweed, Common; experiment: Postemergence herbicidal evaluation, AMBEL; assay type: in vivo, Ambrosia artemisifolia, L.; conditions: postemergence spray, rated about two-three weeks after treatment
Procedure, shortened: as §1

[22] = tested on: CHEAL Lambsquarters, Common; experiment: Postemergence herbicidal evaluation, CHEAL; assay type: in vivo, Chenopodium album, L.; conditions: postemergence spray, rated about two-three weeks after treatment
Procedure, shortened: as §1

[23] = tested on: GALAP Galium; experiment: Postemergence herbicidal evaluation, GALAP; assay type: in vivo, Galium aparine; conditions: postemergence spray, rated about two-three weeks after treatment
Procedure, shortened: as §1

[24] = tested on: TRZAWR Wheat, Winter, cv Riband; experiment: Preemergence herbicidal evaluation, TRZAWR; assay type: in vivo, Triticum aestivum; conditions: preemergence
Procedure, shortened: as §2

COC(=O)C(C)Oc1ccc(C)cc1-n1nnc2cc(F)c(-n3c(=O)cc(C(F)(F)F)n(C)c3=O)cc21 (centres unmarked) [Example 41]
Postemergence herbicidal rating TRZAWR ([1]; 0.008 kg/ha): 6.0 | Postemergence herbicidal rating TRZAWR ([1]; 0.016 kg/ha): 7.0 | Postemergence herbicidal rating TRZAWR ([1]; 0.032 kg/ha): 8.0 | Postemergence herbicidal rating TRZAWR ([1]; 0.062 kg/ha): 8.0 | IPOHE herbicidal rating ([2]; rate 0.016 kg/ha): 0.0 | IPOHE herbicidal rating ([2]; rate 0.032 kg/ha): 0.0 | IPOHE herbicidal rating ([2]; rate 0.062 kg/ha): 0.0 | IPOHE herbicidal rating ([2]; rate 0.125 kg/ha): 9.0 | Postemergence herbicidal rating SETVI ([3]; 0.008 kg/ha): 7.0 | Postemergence herbicidal rating SETVI ([3]; 0.016 kg/ha): 9.0 | Postemergence herbicidal rating SETVI ([3]; 0.032 kg/ha): 9.0 | Postemergence herbicidal rating SETVI ([3]; 0.062 kg/ha): 9.0 | CHEAL herbicidal rating ([4]; rate 0.016 kg/ha): 4.0 | CHEAL herbicidal rating ([4]; rate 0.032 kg/ha): 9.0 | CHEAL herbicidal rating ([4]; rate 0.062 kg/ha): 9.0 | CHEAL herbicidal rating ([4]; rate 0.125 kg/ha): 9.0 | Postemergence herbicidal rating ORYSAT ([5]; 0.008 kg/ha): 1.5 | Postemergence herbicidal rating ORYSAT ([5]; 0.016 kg/ha): 2.5 | Postemergence herbicidal rating ORYSAT ([5]; 0.032 kg/ha): 7.0 | Postemergence herbicidal rating ORYSAT ([5]; 0.062 kg/ha): 8.0 | Postemergence herbicidal rating ECHCG ([6]; 0.008 kg/ha): 6. | Postemergence herbicidal rating ECHCG ([6]; 0.016 kg/ha): 9.0 | Postemergence herbicidal rating ECHCG ([6]; 0.032 kg/ha): 9.0 | Postemergence herbicidal rating ECHCG ([6]; 0.062 kg/ha): 9.0 | Postemergence herbicidal rating GLXMAW ([7]; 0.008 kg/ha): 5.5 | Postemergence herbicidal rating GLXMAW ([7]; 0.016 kg/ha): 7.5 | Postemergence herbicidal rating GLXMAW ([7]; 0.032 kg/ha): 8.0 | Postemergence herbicidal rating GLXMAW ([7]; 0.062 kg/ha): 8.0 | CASOB herbicidal rating ([8]; rate 0.016 kg/ha): 0.0 | CASOB herbicidal rating ([8]; rate 0.032 kg/ha): 0.0 | CASOB herbicidal rating ([8]; rate 0.062 kg/ha): 0.0 | GALAP herbicidal rating ([9]; rate 0.016 kg/ha): 0.0 | GALAP herbicidal rating ([9]; rate 0.032 kg/ha): 0.0 | GALAP herbicidal rating ([9]; rate 0.062 kg/ha): 0.0 | GALAP herbicidal rating ([9]; rate 0.125 kg/ha): 0.0 | Postemergence herbicidal rating ABUTH ([10]; 0.008 kg/ha): 9.0 | Postemergence herbicidal rating ABUTH ([10]; 0.016 kg/ha): 9.0 | Postemergence herbicidal rating ABUTH ([10]; 0.032 kg/ha): 9.0 | Postemergence herbicidal rating ABUTH ([10]; 0.062 kg/ha): 9.0 | Postemergence herbicidal rating CASOB ([11]; 0.008 kg/ha): 1.0 | Postemergence herbicidal rating CASOB ([11]; 0.016 kg/ha): 3.0 | Postemergence herbicidal rating CASOB ([11]; 0.032 kg/ha): 4.0 | Postemergence herbicidal rating CASOB ([11]; 0.062 kg/ha): 9.0 | ORYSAT herbicidal rating ([12]; rate 0.016 kg/ha): 0.0 | ORYSAT herbicidal rating ([12]; rate 0.032 kg/ha): 0.0 | ORYSAT herbicidal rating ([12]; rate 0.062 kg/ha): 3.0 | ORYSAT herbicidal rating ([12]; rate 0.125 kg/ha): 4.0 | SETVI herbicidal rating ([13]; rate 0.016 kg/ha): 0.0 | SETVI herbicidal rating ([13]; rate 0.032 kg/ha): 0.0 | SETVI herbicidal rating ([13]; rate 0.062 kg/ha): 0.0 | SETVI herbicidal rating ([13]; rate 0.125 kg/ha): 9.0 | Postemergence herbicidal rating ZEAMX ([14]; 0.008 kg/ha): 6.5 | Postemergence herbicidal rating ZEAMX ([14]; 0.016 kg/ha): 8.0 | Postemergence herbicidal rating ZEAMX ([14]; 0.032 kg/ha): 8.0 | Postemergence herbicidal rating ZEAMX ([14]; 0.062 kg/ha): 9.0 | Postemergence herbicidal rating IPOHE ([15]; 0.008 kg/ha): 9.0 | Postemergence herbicidal rating IPOHE ([15]; 0.016 kg/ha): 9.0 | Postemergence herbicidal rating IPOHE ([15]; 0.032 kg/ha): 9.0 | Postemergence herbicidal rating IPOHE ([15]; 0.062 kg/ha): 9.0 | ZEAMX herbicidal rating ([16]; rate 0.016 kg/ha): 0.0 | ZEAMX herbicidal rating ([16]; rate 0.032 kg/ha): 0.0 | ZEAMX herbicidal rating ([16]; rate 0.062 kg/ha): 0.0 | ZEAMX herbicidal rating ([16]; rate 0.125 kg/ha): 0.0 | ECHCG herbicidal rating ([17]; rate 0.016 kg/ha): 0.0 | ECHCG herbicidal rating ([17]; rate 0.032 kg/ha): 0.0 | ECHCG herbicidal rating ([17]; rate 0.062 kg/ha): 0.0 | ECHCG herbicidal rating ([17]; rate 0.125 kg/ha): 4.0 | GLXMAW herbicidal rating ([18]; rate 0.016 kg/ha): 0.0 | GLXMAW herbicidal rating ([18]; rate 0.032 kg/ha): 0.0 | GLXMAW herbicidal rating ([18]; rate 0.062 kg/ha): 2.0 | GLXMAW herbicidal rating ([18]; rate 0.125 kg/ha): 2.0 | ABUTH herbicidal rating ([19]; rate 0.016 kg/ha): 4.0 | ABUTH herbicidal rating ([19]; rate 0.032 kg/ha): 4.0 | ABUTH herbicidal rating ([19]; rate 0.062 kg/ha): 9.0 | ABUTH herbicidal rating ([19]; rate 0.125 kg/ha): 9.0 | AMBEL herbicidal rating ([20]; rate 0.016 kg/ha): 0.0 | AMBEL herbicidal rating ([20]; rate 0.032 kg/ha): 0.0 | AMBEL herbicidal rating ([20]; rate 0.062 kg/ha): 0.0 | AMBEL herbicidal rating ([20]; rate 0.125 kg/ha): 7.0 | Postemergence herbicidal rating AMBEL ([21]; 0.008 kg/ha): 7.0 | Postemergence herbicidal rating AMBEL ([21]; 0.016 kg/ha): 9.0 | Postemergence herbicidal rating AMBEL ([21]; 0.032 kg/ha): 9.0 | Postemergence herbicidal rating AMBEL ([21]; 0.062 kg/ha): 9.0 | Postemergence herbicidal rating CHEAL ([22]; 0.008 kg/ha): 2.0 | Postemergence herbicidal rating CHEAL ([22]; 0.016 kg/ha): 2.0 | Postemergence herbicidal rating CHEAL ([22]; 0.032 kg/ha): 4.0 | Postemergence herbicidal rating CHEAL ([22]; 0.062 kg/ha): 5.0 | Postemergence herbicidal rating GALAP ([23]; 0.008 kg/ha): 0.0 | Postemergence herbicidal rating GALAP ([23]; 0.016 kg/ha): 1.0 | Postemergence herbicidal rating GALAP ([23]; 0.032 kg/ha): 3.0 | Postemergence herbicidal rating GALAP ([23]; 0.062 kg/ha): 3.0 | TRZAWR herbicidal rating ([24]; rate 0.016 kg/ha): 0.0 | TRZAWR herbicidal rating ([24]; rate 0.032 kg/ha): 0.0 | TRZAWR herbicidal rating ([24]; rate 0.062 kg/ha): 0.0 | TRZAWR herbicidal rating ([24]; rate 0.125 kg/ha): 1.0
